# Measured values published in the supplement of paper PMC10307832.
# How the values were obtained:
# Experiment in all cases: relative viability (nuclei count vs DMSO), 5 days (fraction); higher = more cells survive
# [1] = compound: CCN(CC)CCNC(=O)c1c(C)[nH]c(/C=C2\C(=O)Nc3ccc(F)cc32)c1C [Sunitinib]
# Procedure, shortened: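 Only plates meeting two conditions passed: control CV below 25% and at least one doubling. Lung cancer cell lines, kept overnight at 37 °C in 1536-well plates, were pinned with five library-drug doses (not always all listed) √10 apart on vehicle-anchored plates and grown 5 days without medium change. A one-step fix, permeabilisation and Hoechst stain preceded 4× imaging and MetaXpress nuclear counting. Viability equals treated-well nuclei divided by vehicle-well nuclei, as the median over plates.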
# [2] = compound: CCN(CC)CCNC(=O)c1c(C)[nH]c(/C=C2\C(=O)Nc3ccc(F)cc32)c1C [Sunitinib] + CCNC(=O)c1noc(-c2cc(C(C)C)c(O)cc2O)c1-c1ccc(CN2CCOCC2)cc1 [Luminespib] (partner 0.01 µM)
# Procedure, shortened: (§1)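 Relative viability divides the nuclei count in treated wells by that in vehicle wells. Lung cancer cell lines were seeded in 1536-well plates, dosed by pin tool the next day, and fixed and stained after 5 days in one step with final 0.05% Triton X-100, 1% formaldehyde and 1 ug/ml Hoechst. Dosing was a single drug or a fixed anchor-drug dose plus five library-drug doses (not always all listed) in √10 steps, and values are medians of duplicate plates imaged at 4×.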
# [3] = compound: CCN(CC)CCNC(=O)c1c(C)[nH]c(/C=C2\C(=O)Nc3ccc(F)cc32)c1C [Sunitinib] + COc1cc2c(Oc3ccc(NC(=O)C4(C(=O)Nc5ccc(F)cc5)CC4)cc3F)ccnc2cc1OCCCN1CCOCC1 [Foretinib] (partner 0.25 µM)
# Procedure, shortened: as §1
# [4] = compound: CCN(CC)CCNC(=O)c1c(C)[nH]c(/C=C2\C(=O)Nc3ccc(F)cc32)c1C [Sunitinib] + COc1cccc2cc(-c3nc([C@H]4CC[C@H](C(=O)O)CC4)n4ncnc(N)c34)[nH]c12 [OSI-027] (partner 0.5 µM)
# Procedure, shortened: as §1
# [5] = compound: CCN(CC)CCNC(=O)c1c(C)[nH]c(/C=C2\C(=O)Nc3ccc(F)cc32)c1C [Sunitinib] + Cc1cc(Nc2cc(N3CCN(C)CC3)nc(Sc3ccc(NC(=O)C4CC4)cc3)n2)n[nH]1 [Tozasertib] (partner 0.1 µM)
# Procedure, shortened: as §1
# [6] = compound: CCN(CC)CCNC(=O)c1c(C)[nH]c(/C=C2\C(=O)Nc3ccc(F)cc32)c1C [Sunitinib] + Cc1nc(Nc2ncc(C(=O)Nc3c(C)cccc3Cl)s2)cc(N2CCN(CCO)CC2)n1 [Dasatinib] (partner 0.075 µM)
# Procedure, shortened: as §1
# [7] = compound: CCN(CC)CCNC(=O)c1c(C)[nH]c(/C=C2\C(=O)Nc3ccc(F)cc32)c1C [Sunitinib] + N=C(N)NC(=N)NCCc1ccccc1 [Phenformin] (partner 250 µM)
# Procedure, shortened: as §1
# [8] = compound: CCN(CC)CCNC(=O)c1c(C)[nH]c(/C=C2\C(=O)Nc3ccc(F)cc32)c1C [Sunitinib] + CC(=O)Nc1cccc(-n2c(=O)n(C3CC3)c(=O)c3c(Nc4ccc(I)cc4F)n(C)c(=O)c(C)c32)c1 [Trametinib] (partner 0.02 µM)
# Procedure, shortened: as §1
# [9] = compound: CCN(CC)CCNC(=O)c1c(C)[nH]c(/C=C2\C(=O)Nc3ccc(F)cc32)c1C [Sunitinib] + CC(=O)c1c(C)c2cnc(Nc3ccc(N4CCNCC4)cn3)nc2n(C2CCCC2)c1=O [Palbociclib] (partner 0.5 µM)
# Procedure, shortened: as §1
# [10] = compound: CCN(CC)CCNC(=O)c1c(C)[nH]c(/C=C2\C(=O)Nc3ccc(F)cc32)c1C [Sunitinib] + NC(=O)Nc1cc(-c2cccc(F)c2)sc1C(=O)N[C@H]1CCCNC1 [AZD7762] (partner 0.2 µM)
# Procedure, shortened: as §1
# [11] = compound: CCN(CC)CCNC(=O)c1c(C)[nH]c(/C=C2\C(=O)Nc3ccc(F)cc32)c1C [Sunitinib] + Nc1nc2[nH]cc(CCc3ccc(C(=O)N[C@@H](CCC(=O)O)C(=O)O)cc3)c2c(=O)[nH]1 [Pemetrexed] (partner 0.2 µM)
# Procedure, shortened: as §1
# [12] = compound: CCN(CC)CCNC(=O)c1c(C)[nH]c(/C=C2\C(=O)Nc3ccc(F)cc32)c1C [Sunitinib] + Nc1ncn([C@H]2C[C@H](O)[C@@H](CO)O2)c(=O)n1 [Decitabine] (partner 2 µM)
# Procedure, shortened: as §1
# [13] = compound: CCN(CC)CCNC(=O)c1c(C)[nH]c(/C=C2\C(=O)Nc3ccc(F)cc32)c1C [Sunitinib] + O=C(CCCCCCC(=O)Nc1ccccc1)NO [Vorinostat] (partner 1 µM)
# Procedure, shortened: as §1
# [14] = compound: CCN(CC)CCNC(=O)c1c(C)[nH]c(/C=C2\C(=O)Nc3ccc(F)cc32)c1C [Sunitinib] + O=C(c1cc(Cc2n[nH]c(=O)c3ccccc23)ccc1F)N1CCN(C(=O)C2CC2)CC1 [Olaparib] (partner 8 µM)
# Procedure, shortened: as §1
cell line,measurement,setting,value
NCI-H1623,relative viability,[1]; 0.02 µM,0.98
same,relative viability,[1]; 0.06325 µM,0.96
same,relative viability,[1]; 0.2 µM,0.994
same,relative viability,[1]; 2 µM,0.916
same,relative viability,[2]; first compound 0.02 µM,0.545
same,relative viability,[2]; first compound 0.06325 µM,0.545
same,relative viability,[2]; first compound 0.2 µM,0.682
same,relative viability,[2]; first compound 0.6325 µM,0.611
same,relative viability,[2]; first compound 2 µM,0.464
same,relative viability,[3]; first compound 0.02 µM,0.83
same,relative viability,[3]; first compound 0.06325 µM,0.843
same,relative viability,[3]; first compound 0.2 µM,0.955
same,relative viability,[3]; first compound 0.6325 µM,0.977
same,relative viability,[3]; first compound 2 µM,0.872
same,relative viability,[4]; first compound 0.02 µM,0.45
same,relative viability,[4]; first compound 0.06325 µM,0.393
same,relative viability,[4]; first compound 0.2 µM,0.474
same,relative viability,[4]; first compound 0.6325 µM,0.407
same,relative viability,[4]; first compound 2 µM,0.358
same,relative viability,[5]; first compound 0.02 µM,0.461
same,relative viability,[5]; first compound 0.06325 µM,0.434
same,relative viability,[5]; first compound 0.2 µM,0.446
same,relative viability,[5]; first compound 0.6325 µM,0.488
same,relative viability,[5]; first compound 2 µM,0.369
same,relative viability,[6]; first compound 0.02 µM,0.612
same,relative viability,[6]; first compound 0.06325 µM,0.507
same,relative viability,[6]; first compound 0.2 µM,0.574
same,relative viability,[6]; first compound 0.6325 µM,0.58
same,relative viability,[6]; first compound 2 µM,0.543
same,relative viability,[7]; first compound 0.02 µM,0.649
same,relative viability,[7]; first compound 0.06325 µM,0.499
same,relative viability,[7]; first compound 0.2 µM,0.581
same,relative viability,[7]; first compound 0.6325 µM,0.675
same,relative viability,[7]; first compound 2 µM,0.49
SW 900,relative viability,[1]; 0.02 µM,1.01
same,relative viability,[1]; 0.06325 µM,1.07
same,relative viability,[1]; 0.2 µM,0.932
same,relative viability,[1]; 0.6325 µM,1.04
same,relative viability,[1]; 2 µM,0.957
same,relative viability,[8]; first compound 0.02 µM,0.718
same,relative viability,[8]; first compound 0.06325 µM,0.715
same,relative viability,[8]; first compound 0.2 µM,0.941
same,relative viability,[8]; first compound 0.6325 µM,0.795
same,relative viability,[8]; first compound 2 µM,0.766
same,relative viability,[9]; first compound 0.02 µM,0.517
same,relative viability,[9]; first compound 0.06325 µM,0.592
same,relative viability,[9]; first compound 0.2 µM,0.576
same,relative viability,[9]; first compound 0.6325 µM,0.587
same,relative viability,[9]; first compound 2 µM,0.604
same,relative viability,[2]; first compound 0.02 µM,0.183
same,relative viability,[2]; first compound 0.06325 µM,0.22
same,relative viability,[2]; first compound 0.2 µM,0.172
same,relative viability,[2]; first compound 0.6325 µM,0.192
same,relative viability,[2]; first compound 2 µM,0.194
same,relative viability,[3]; first compound 0.02 µM,0.834
same,relative viability,[3]; first compound 0.06325 µM,0.934
same,relative viability,[3]; first compound 0.2 µM,0.865
same,relative viability,[3]; first compound 0.6325 µM,0.966
same,relative viability,[3]; first compound 2 µM,0.834
same,relative viability,[4]; first compound 0.02 µM,0.597
same,relative viability,[4]; first compound 0.06325 µM,0.715
same,relative viability,[4]; first compound 0.2 µM,0.665
same,relative viability,[4]; first compound 0.6325 µM,0.584
same,relative viability,[4]; first compound 2 µM,0.614
same,relative viability,[5]; first compound 0.02 µM,0.432
same,relative viability,[5]; first compound 0.06325 µM,0.58
same,relative viability,[5]; first compound 0.2 µM,0.648
same,relative viability,[5]; first compound 0.6325 µM,0.525
same,relative viability,[5]; first compound 2 µM,0.328
same,relative viability,[6]; first compound 0.02 µM,0.418
same,relative viability,[6]; first compound 0.06325 µM,0.722
same,relative viability,[6]; first compound 0.2 µM,0.634
same,relative viability,[6]; first compound 0.6325 µM,0.717
same,relative viability,[6]; first compound 2 µM,0.605
same,relative viability,[7]; first compound 0.02 µM,0.579
same,relative viability,[7]; first compound 0.06325 µM,0.79
same,relative viability,[7]; first compound 0.2 µM,0.641
same,relative viability,[7]; first compound 0.6325 µM,0.894
same,relative viability,[7]; first compound 2 µM,0.581
same,relative viability,[10]; first compound 0.02 µM,0.633
same,relative viability,[10]; first compound 0.06325 µM,0.676
same,relative viability,[10]; first compound 0.2 µM,0.664
same,relative viability,[10]; first compound 0.6325 µM,0.67
same,relative viability,[10]; first compound 2 µM,0.648
same,relative viability,[11]; first compound 0.02 µM,0.466
same,relative viability,[11]; first compound 0.06325 µM,0.495
same,relative viability,[11]; first compound 0.2 µM,0.491
same,relative viability,[11]; first compound 0.6325 µM,0.5
same,relative viability,[11]; first compound 2 µM,0.501
same,relative viability,[12]; first compound 0.02 µM,0.44
same,relative viability,[12]; first compound 0.06325 µM,0.364
same,relative viability,[12]; first compound 0.2 µM,0.394
same,relative viability,[12]; first compound 0.6325 µM,0.407
same,relative viability,[12]; first compound 2 µM,0.433
same,relative viability,[13]; first compound 0.02 µM,0.516
same,relative viability,[13]; first compound 0.06325 µM,0.626
same,relative viability,[13]; first compound 0.2 µM,0.541
same,relative viability,[13]; first compound 0.6325 µM,0.604
same,relative viability,[13]; first compound 2 µM,0.597
same,relative viability,[14]; first compound 0.02 µM,0.794
same,relative viability,[14]; first compound 0.06325 µM,1.04
same,relative viability,[14]; first compound 0.2 µM,0.847
same,relative viability,[14]; first compound 0.6325 µM,1.1
same,relative viability,[14]; first compound 2 µM,0.945
